Where a SMILES comes first, the peptide text is derived from it. Bridges are numbered along the chain shown (N, C = ends). [ ]: non-standard residue; d: D form. The star is where a group is joined. hPhe(3-Cl-4-CF3) = N[C@@H](CCc1ccc(C(F)(F)F)c(Cl)c1)C(=O)O; NPrPhe(4-CF3) = CCCN[C@@H](Cc1ccc(C(F)(F)F)cc1)C(=O)O; NMeGly(cPent) = CN[C@H](C(=O)O)C1CCCC1; Pro(4,4-F2) = O=C(O)[C@@H]1CC(F)(F)CN1; NMeGly(cBu) = CN[C@H](C(=O)O)C1CCC1; NMeD = CN[C@@H](CC(=O)O)C(=O)O; Morpholide = C1CN(*)CCO1; Ac5c = NC1(C(=O)O)CCCC1; Sar = CNCC(=O)O
Tests used:
[1] = target: GDP-bound NRAS wild-type protein (Homo sapiens, UniProt P01111); assay: Binding to NRAS by surface plasmon resonance (SPR), Single Cycle Kinetics; conditions: SPR
[2] = target: GDP-bound HRAS wild-type protein (Homo sapiens, UniProt P01112); assay: Binding to HRAS by surface plasmon resonance (SPR), Single Cycle Kinetics; conditions: SPR
[3] = KD ratio, GDP-bound NRAS wild-type vs GDP-bound KRAS wild-type
[4] = KD ratio, GDP-bound HRAS wild-type vs GDP-bound KRAS wild-type
[5] = GDP-bound NRAS wild-type vs GDP-bound KRAS wild-type
[6] = GDP-bound HRAS wild-type vs GDP-bound KRAS wild-type

Chain of GDP-bound NRAS wild-type protein (P01111 whole entry): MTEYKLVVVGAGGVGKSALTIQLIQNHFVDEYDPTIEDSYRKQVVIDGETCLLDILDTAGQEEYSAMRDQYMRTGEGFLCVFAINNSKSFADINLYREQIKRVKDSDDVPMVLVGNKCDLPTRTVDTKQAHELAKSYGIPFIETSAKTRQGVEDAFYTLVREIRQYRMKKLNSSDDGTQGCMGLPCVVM
Chain of GDP-bound HRAS wild-type protein (P01112 whole entry): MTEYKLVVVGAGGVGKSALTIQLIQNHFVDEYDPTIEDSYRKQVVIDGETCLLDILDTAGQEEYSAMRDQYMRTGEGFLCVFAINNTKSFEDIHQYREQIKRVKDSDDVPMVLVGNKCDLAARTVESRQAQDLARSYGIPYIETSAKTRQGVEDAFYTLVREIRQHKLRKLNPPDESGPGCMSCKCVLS

## CCO[C@@H]1C[C@H]2C(=O)N(C)C3(CC(C)(C)C3)C(=O)N(C)[C@@H](C3CCCC3)C(=O)N(C)[C@H](C(=O)N(C)C)CC(=O)N(C)[C@H]3CCC/C=C/c4ccc(cc4)C[C@@H](C(=O)N(C)CC(=O)N[C@@H](CCc4cc(F)c(C(F)(F)F)c(F)c4)C(=O)N2C1)N1CC/C=C\C[C@@H](C1=O)N(C)C(=O)CN(C)C(=O)[C@H]([C@@H](C)CC)NC3=O [PP3060]
[1]; KD ratio NRAS/KRAS, GDP-bound wild-type proteins
  NRAS/KRAS (ratio of KD value with respect to GDP-bound NRAS wild-type protein to KD value with respect to KRAS): B (a compound having 3 or more and less than 10 is denoted as B)
[2]; KD ratio HRAS/KRAS, GDP-bound wild-type proteins
  HRAS/KRAS (ratio of KD value with respect to GDP-bound HRAS wild-type protein to KD value with respect to KRAS): B (a compound having 3 or more and less than 10 is denoted as B)

## CCCN1C(=O)CN(C)C(=O)CN(C)C(=O)[C@H]([C@@H](C)CC)NC(=O)[C@H](C2CCC2)N(C)C(=O)C[C@@H](C(=O)N2CCOCC2)N(C)C(=O)[C@H](C2CCCC2)N(C)C(=O)C2(CCCC2)NC(=O)[C@@H]2CC(F)(F)CN2C(=O)[C@H](CCc2ccc(C(F)(F)F)c(Cl)c2)NC(=O)CN(C)C(=O)[C@@H]1Cc1ccc(C(F)(F)F)cc1 [PP0200] ([NMeGly(cBu)]I[Sar][Sar][NPrPhe(4-CF3)][Sar][hPhe(3-Cl-4-CF3)][Pro(4,4-F2)][Ac5c][NMeGly(cPent)][NMeD]-Morpholide; lactam N-11)
[1]; KD ratio NRAS/KRAS
  NRAS/KRAS (ratio of KD for GDP-bound NRAS wild-type to KD for KRAS): C (A compound having a KD ratio of 0.1 or more and less than 3 is denoted as C)
[2]; KD ratio HRAS/KRAS
  HRAS/KRAS (ratio of KD for GDP-bound HRAS wild-type to KD for KRAS): C (A compound having a KD ratio of 0.1 or more and less than 3 is denoted as C)

## CCO[C@@H]1C[C@H]2C(=O)NC3(CCC3)C(=O)N(C)[C@@H](C3CCCC3)C(=O)N(C)[C@H](C(=O)N(C)C)CC(=O)N(C)[C@@H](Cc3ccc(C#N)cc3)C(=O)N[C@@H]([C@@H](C)CC)C(=O)N(C)CC(=O)N(C)[C@H]3CCCCCN(C3=O)[C@@H](Cc3ccc(F)cc3)C(=O)N(C)CC(=O)N[C@@H](CCc3cc(F)c(C(F)(F)F)c(F)c3)C(=O)N2C1 [PP1157]
[1]; [3]
  NRAS/KRAS (ratio of KD value with respect to NRAS to KD value with respect to KRAS): B (a compound having 3 or more and less than 10 is denoted as B)
[2]; [4]
  HRAS/KRAS (ratio of KD value with respect to HRAS to KD value with respect to KRAS): B (a compound having 3 or more and less than 10 is denoted as B)

## CCCOC[C@H]1C(=O)N[C@@H]([C@@H](C)CC)C(=O)N(C2CC2)CC(=O)N(C)[C@H]2C/C=C\CCN(C2=O)[C@@H](Cc2ccc(C(F)(F)F)cc2)C(=O)N(C)CC(=O)N[C@@H](CCc2ccc(C(F)(F)F)c(OC)c2)C(=O)N2C[C@H](OCC)C[C@H]2C(=O)N(C)C2(CCC2)C(=O)N(C)[C@@H](C2CCCC2)C(=O)N(C)[C@H](C(=O)N(C)C)CC(=O)N1C [PP2318]
[1]; [5]
  NRAS/KRAS (ratio of KD value with respect to NRAS to KD value with respect to KRAS): A (a compound having 10 or more and less than 20 is denoted as A)
[2]; [6]
  HRAS/KRAS (ratio of KD value with respect to HRAS to KD value with respect to KRAS): A (a compound having 10 or more and less than 20 is denoted as A)

## CCO[C@@H]1C[C@H]2C(=O)NC3(CC(C)(C)C3)C(=O)N(C)[C@@H](C(CC)CC)C(=O)N(C)[C@H](C(=O)N(C)C)CC(=O)N(C)[C@@H](COC)C(=O)N[C@@H]([C@@H](C)CC)C(=O)N(C)CC(=O)N(C)[C@H]3C/C=C\CCN(C3=O)[C@@H](CC3CCCCC3)C(=O)N(C)CC(=O)N[C@@H](CCc3ccc(C(F)(F)F)c(Cl)c3)C(=O)N2C1 [PP2468]
[1]; [5]
  NRAS/KRAS (ratio of KD value with respect to NRAS to KD value with respect to KRAS): AA (a compound having 20 or more is denoted as AA)
[2]; [6]
  HRAS/KRAS (ratio of KD value with respect to HRAS to KD value with respect to KRAS): A (a compound having 10 or more and less than 20 is denoted as A)

## CCCOC[C@H]1C(=O)N[C@@H]([C@@H](C)CC)C(=O)N(C)CC(=O)N(C)[C@H]2C/C=C\CCN(C2=O)[C@@H](Cc2ccc(C(F)(F)F)cc2)C(=O)N(C)CC(=O)N[C@@H](CCc2cc(F)c(C(F)(F)F)c(F)c2)C(=O)N2C[C@H](F)C[C@H]2C(=O)NC2(CC(C)(C)C2)C(=O)N(C)[C@@H](C2CCCC2)C(=O)N(C)[C@H](C(=O)N(C)CC)CC(=O)N1C [PP1697]
[1]; [3]
  NRAS/KRAS (ratio of KD value for NRAS to KD value for KRAS): A (a compound having 10 or more and less than 20 is denoted as A)
[2]; [4]
  HRAS/KRAS (ratio of KD value for HRAS to KD value for KRAS): A (a compound having 10 or more and less than 20 is denoted as A)

## CCO[C@@H]1C[C@H]2C(=O)NC3(CCC3)C(=O)N(C)[C@@H](C3CCCC3)C(=O)N(CCC3CCCC3)[C@H](C(=O)N(C)C)CC(=O)N(C)[C@@H](CC)C(=O)N[C@@H]([C@@H](C)CC)C(=O)N(C)CC(=O)N(C)[C@H]3CCCCCN(C3=O)[C@@H](Cc3ccc(C(F)(F)F)cc3)C(=O)N(C)CC(=O)N[C@@H](CCc3cc(F)c(C(F)(F)F)c(F)c3)C(=O)N2C1 [PP0636]
[1]; KD ratio NRAS/KRAS
  NRAS/KRAS (ratio of KD value with respect to GDP-bound NRAS wild-type protein to KD value with respect to KRAS): A (a compound having 10 or more and less than 20 is denoted as A)
[2]; KD ratio HRAS/KRAS
  HRAS/KRAS (ratio of KD value with respect to GDP-bound HRAS wild-type protein to KD value with respect to KRAS): A (a compound having 10 or more and less than 20 is denoted as A)

Reference: patent US20250230193A1, “CYCLIC COMPOUND HAVING SELECTIVE KRAS INHIBITORY EFFECT ON HRAS AND NRAS” (CHUGAI SEIYAKU KABUSHIKI KAISHA, priority 2022, published 2025)
